Laboratory results taken from BigSolDB 2.1.

Structure (SMILES): Nc1ccc(N2CCOCC2=O)cc1
- solubility (mole fraction) (in 1,4-dioxane, 278.15 K): 0.00411
- solubility (mole fraction) (in 1,4-dioxane, 283.15 K): 0.00529
- solubility (mole fraction) (in 1,4-dioxane, 288.15 K): 0.00665
- solubility (mole fraction) (in 1,4-dioxane, 293.15 K): 0.0083
- solubility (mole fraction) (in 1,4-dioxane, 298.15 K): 0.0102
- solubility (mole fraction) (in 1,4-dioxane, 303.15 K): 0.0125
- solubility (mole fraction) (in 1,4-dioxane, 308.15 K): 0.0149
- solubility (mole fraction) (in 1,4-dioxane, 313.15 K): 0.0178
- solubility (mole fraction) (in 1,4-dioxane, 318.15 K): 0.0209
- solubility (mole fraction) (in 1,4-dioxane, 323.15 K): 0.0244
- solubility (mole fraction) (in 1,4-dioxane, 328.15 K): 0.0282
- solubility (mole fraction) (in 1,4-dioxane, 333.15 K): 0.032
- solubility (mole fraction) (in THF, 278.15 K): 0.00138
- solubility (mole fraction) (in THF, 283.15 K): 0.00182
- solubility (mole fraction) (in THF, 288.15 K): 0.00245
- solubility (mole fraction) (in THF, 293.15 K): 0.00323
- solubility (mole fraction) (in THF, 298.15 K): 0.00423
- solubility (mole fraction) (in THF, 303.15 K): 0.00542
- solubility (mole fraction) (in THF, 308.15 K): 0.00687
- solubility (mole fraction) (in THF, 313.15 K): 0.00865
- solubility (mole fraction) (in THF, 318.15 K): 0.0107
- solubility (mole fraction) (in THF, 323.15 K): 0.0132
- solubility (mole fraction) (in THF, 328.15 K): 0.0159
- solubility (mole fraction) (in THF, 333.15 K): 0.0191
- solubility (mole fraction) (in ethanol, 278.15 K): 0.00127
- solubility (mole fraction) (in ethanol, 283.15 K): 0.00162
- solubility (mole fraction) (in ethanol, 288.15 K): 0.00208
- solubility (mole fraction) (in ethanol, 293.15 K): 0.0026
- solubility (mole fraction) (in ethanol, 298.15 K): 0.00321
- solubility (mole fraction) (in ethanol, 303.15 K): 0.00393
- solubility (mole fraction) (in ethanol, 308.15 K): 0.00475
- solubility (mole fraction) (in ethanol, 313.15 K): 0.00567
- solubility (mole fraction) (in ethanol, 318.15 K): 0.00672
- solubility (mole fraction) (in ethanol, 323.15 K): 0.00792
- solubility (mole fraction) (in ethanol, 328.15 K): 0.00928
- solubility (mole fraction) (in ethanol, 333.15 K): 0.0107
- solubility (mole fraction) (in ethyl acetate, 278.15 K): 0.000559
- solubility (mole fraction) (in ethyl acetate, 283.15 K): 0.000794
- solubility (mole fraction) (in ethyl acetate, 288.15 K): 0.0011
- solubility (mole fraction) (in ethyl acetate, 293.15 K): 0.00149
- solubility (mole fraction) (in ethyl acetate, 298.15 K): 0.00196
- solubility (mole fraction) (in ethyl acetate, 303.15 K): 0.00257
- solubility (mole fraction) (in ethyl acetate, 308.15 K): 0.00326
- solubility (mole fraction) (in ethyl acetate, 313.15 K): 0.00412
- solubility (mole fraction) (in ethyl acetate, 318.15 K): 0.00509
- solubility (mole fraction) (in ethyl acetate, 323.15 K): 0.0062
- solubility (mole fraction) (in ethyl acetate, 328.15 K): 0.00743
- solubility (mole fraction) (in ethyl acetate, 333.15 K): 0.00873
- solubility (mole fraction) (in methanol, 278.15 K): 0.00172
- solubility (mole fraction) (in methanol, 283.15 K): 0.00221
- solubility (mole fraction) (in methanol, 288.15 K): 0.00285
- solubility (mole fraction) (in methanol, 293.15 K): 0.00367
- solubility (mole fraction) (in methanol, 298.15 K): 0.00463
- solubility (mole fraction) (in methanol, 303.15 K): 0.00589
- solubility (mole fraction) (in methanol, 308.15 K): 0.00751
- solubility (mole fraction) (in methanol, 313.15 K): 0.00955
- solubility (mole fraction) (in methanol, 318.15 K): 0.0121
- solubility (mole fraction) (in methanol, 323.15 K): 0.0153
- solubility (mole fraction) (in methanol, 328.15 K): 0.019
- solubility (mole fraction) (in methanol, 333.15 K): 0.0239
- solubility (mole fraction) (in n-propanol, 278.15 K): 0.000322
- solubility (mole fraction) (in n-propanol, 283.15 K): 0.000404
- solubility (mole fraction) (in n-propanol, 288.15 K): 0.000506
- solubility (mole fraction) (in n-propanol, 293.15 K): 0.000649
- solubility (mole fraction) (in n-propanol, 298.15 K): 0.000825
- solubility (mole fraction) (in n-propanol, 303.15 K): 0.00105
- solubility (mole fraction) (in n-propanol, 308.15 K): 0.00133
- solubility (mole fraction) (in n-propanol, 313.15 K): 0.0017
- solubility (mole fraction) (in n-propanol, 318.15 K): 0.00216
- solubility (mole fraction) (in n-propanol, 323.15 K): 0.00274
- solubility (mole fraction) (in n-propanol, 328.15 K): 0.00348
- solubility (mole fraction) (in n-propanol, 333.15 K): 0.00443
